Legend:
[1] = target: T1, Purified recombinant NBD1 (Homo sapiens, UniProt P13569); test: Aggregation analysis using differential static light scattering (DSLS): thermal stability of NBD1; format: binding; conditions: NBD1 0.2 mg/ml; Tagg of compound well minus average Tagg of DMSO control wells
T1 construct: Purified recombinant NBD1 was produced using previously described methods; made in house
Summary of the method: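 ΔTagg is compound-well aggregation temperature minus the DMSO-control mean, each Tagg being the inflection point of light scattering measured by DSLS during a 1 °C/min ramp up to 70 °C. The protein was purified NBD1 (0.2 mg/ml) in pH 7.6 buffer containing 2 mM ATP, 5 mM MgCl2 and 1% glycerol.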

[2] = system: Primary human bronchial epithelial cells from a ΔF508 homozygous CF donor (CF-HBE cells); test: TECC24 recording of CFTR-mediated transepithelial chloride transport, AUC fold over benchmark VX-809 @10 μM; format: cell-based; conditions: 48 hours incubation, AUC of forskolin-stimulated IEQ
Summary of the method: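 Values are the forskolin-to-inhibitor-172 AUC of equivalent Cl− current, derived from transepithelial voltage and resistance, divided by the VX-809 AUC and binned as A <3, B 3–6, C 6–20. Cells were pre-incubated with compound for 48 h at 36.5 °C; the bath (pH 7.4) received benzamil 10 μM, forskolin 10 μM, then CFTRinh-172 20 μM.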

T1 sequence (P13569 423-646 limits assumed): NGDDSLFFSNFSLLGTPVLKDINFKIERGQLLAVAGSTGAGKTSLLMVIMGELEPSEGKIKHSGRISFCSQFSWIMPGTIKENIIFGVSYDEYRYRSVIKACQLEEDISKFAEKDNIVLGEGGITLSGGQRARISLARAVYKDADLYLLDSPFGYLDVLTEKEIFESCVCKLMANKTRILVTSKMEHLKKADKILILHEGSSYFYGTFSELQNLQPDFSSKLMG

Row | SMILES | DSLS (ΔTagg) [1] | TECC (test agent AUC divided by VX-809 AUC) [2]
1 | CN1Cc2c(c(F)cc3[nH]ccc23)Oc2ccc(F)c(c2)-c2ncc([nH]2)C(C)(c2ccccc2)CCCOCC(C)(C)C1=O (stereo not drawn) [Compound 74, 23,29-difluoro-6,12,12,14-tetramethyl-6-phenyl-10,25-dioxa-3,14,20,31-tetrazapentacyclo[24.3.1.12,5.016,24.017,21]hentriaconta-1(30),2,4,16,18,21,23,26,28-nonaen-13-one] | A (an ΔTagg value less than or equal to 5 °C is marked “A”) | A (a TECC value less than 3 is marked “A”)
2 | CC1(C)CCCC(C)(c2ccccc2)c2nnc([nH]2)-c2cc(ccc2F)Oc2c(F)cc3[nH]ccc3c2COC(=O)NC1 (stereo not drawn) [Compound 91, 23,29-Difluoro-6,10,10-trimethyl-6-phenyl-14,25-dioxa-3,4,12,20,31-pentazapentacyclo[24.3.1.12,5.016,24.017,21]hentriaconta-1(30),2,4,16(24),17(21),18,22,26,28-nonaen-13-one] | B (a value above 5 °C and less than or equal to 10 °C is marked “B”) | A (a TECC value less than 3 is marked “A”)
3 | CN1CC(C)(C)CCCC(C)(c2ccc(CCC(=O)O)cc2)c2cnc([nH]2)-c2cc(ccc2F)Oc2c(F)cc3[nH]ccc3c2CCC1=O (single isomer, unassigned) [Compound 47B, 3-[4-(23,29-Difluoro-6,10,10,12-tetramethyl-13-oxo-25-oxa-3,12,20,31-tetrazapentacyclo-[24.3.1.12,5.016,24.017,21]hentriaconta-1(30),2,4,16,18,21,23,26,28-nonaen-6-yl)phenyl]propanoic acid] | C (a value greater than 10 °C and less than or equal to 25 °C is marked “C”) | A (a TECC value less than 3 is marked “A”)
4 | CN1CC(C)(C)CCCCC(C)(c2ccccc2)c2cnc([nH]2)-c2cc(ccc2F)Oc2c(F)cc3[nH]ccc3c2CCC1=O (stereo not drawn) [Compound 62, 24,30-Difluoro-6,11,11,13-tetramethyl-6-phenyl-26-oxa-3,13,21,32-tetrazapentacyclo[25.3.1.12,5.017,25.018,22]dotriaconta-1(31),2,4,17,19,22,24,27,29-nonaen-14-one] | A (an ΔTagg value less than or equal to 5 °C is marked “A”) | A (a TECC value less than 3 is marked “A”)
5 | [2H]C([2H])([2H])n1nc2nc1-c1cc(ccc1F)Oc1c(F)cc3[nH]ccc3c1CCC(=O)N(C)CC(C)(C)CCCC2(C)c1cccc(CCC(=O)NS(C)(=O)=O)c1 (single isomer, unassigned) [Compound 79A, 3-[3-[23,29-difluoro-6,10,10,12-tetramethyl-13-oxo-3-(trideuteriomethyl)-25-oxa-3,4,12,20,31-pentazapentacyclo[24.3.1.12,5.016,24.017,21]hentriaconta-1(30),2(31),4,16,18,21,23,26,28-nonaen-6-yl]phenyl]-N-methylsulfonyl-propanamide] | A (an ΔTagg value less than or equal to 5 °C is marked “A”) | A (a TECC value less than 3 is marked “A”)
6 | CC1(C)CCCCC(C)(c2cccc(CCC(=O)O)c2)c2cnc([nH]2)-c2cc(ccc2F)Oc2c(F)cc3[nH]ccc3c2COC(=O)N1 (single isomer, unassigned) [Compound 93B, 3-[3-(23,29-difluoro-6,11,11-trimethyl-13-oxo-14,25-dioxa-3,12,20,31-tetrazapentacyclo[24.3.1.12,5.016,24.017,21]hentriaconta-1(30),2,4,16,18,21,23,26,28-nonaen-6-yl)phenyl]propanoic acid] | C (a value greater than 10 °C and less than or equal to 25 °C is marked “C”) | A (a TECC value less than 3 is marked “A”)
7 | CON(C)C(=O)CCc1cccc(C2(C)CCCC(C)(C)CN(C)C(=O)CCc3c(c(F)cc4[nH]ccc34)Oc3ccc(F)c(c3)-c3ncc2[nH]3)c1 (single isomer, unassigned) [Compound 60A, 3-[3-(23,29-difluoro-6,10,10,12-tetramethyl-13-oxo-25-oxa-3,12,20,31-tetrazapentacyclo-[24.3.1.12,5.016,24.017,21]hentriaconta-1(30),2,4,16,18,21,23,26,28-nonaen-6-yl)phenyl]-N-methoxy-N-methyl-propanamide] | A (an ΔTagg value less than or equal to 5 °C is marked “A”) | A (a TECC value less than 3 is marked “A”)
8 | CC(Cc1cccc(C2(C)CCCCC(C)(C)NC(=O)OCc3c(c(F)cc4[nH]ccc34)Oc3ccc(F)c(c3)-c3nc2nn3C)c1)C(=O)O (single isomer, unassigned) [Compound 101A, 3-[3-(23,29-difluoro-3,6,11,11-tetramethyl-13-oxo-14,25-dioxa-3,4,12,20,31-pentazapentacyclo[24.3.1.12,5.016,24.017,21]-hentriaconta-1(30),2(31),4,16,18,21,23,26,28-nonaen-6-yl)phenyl]-2-methyl-propanoic acid] | C (a value greater than 10 °C and less than or equal to 25 °C is marked “C”) | B (a value between 3 and 6 is marked “B”)
9 | CN1CCCc2c(c(F)cc3[nH]ccc23)Oc2ccc(F)c(c2)-c2ncc([nH]2)C(C)(c2cccc(CCC(=O)O)c2)CCCOC1=O (stereo not drawn) [Compound 84, 3-[3-(23,29-Difluoro-6,12-dimethyl-11-oxo-10,25-dioxa-3,12,20,31-tetrazapentacyclo[24.3.1.12,5.016,24.017,21]hentriaconta-1(30),2,4,16(24),17(21),18,22,26,28-nonaen-6-yl)phenyl]propanoic acid] | C (a value greater than 10 °C and less than or equal to 25 °C is marked “C”) | B (a value between 3 and 6 is marked “B”)
10 | Cn1nc2nc1-c1cc(ccc1F)Oc1c(F)cc3[nH]ccc3c1COC(=O)NC(C)(C)CCCCC2(C)c1ccccc1 (stereo not drawn) [Compound 102, 23,29-difluoro-3,6,11,11-tetramethyl-6-phenyl-14,25-dioxa-3,4,12,20,31-pentazapentacyclo[24.3.1.12,5.016,24.017,21]hentriaconta-1(30),2(31),4,16,18,21,23,26,28-nonaen-13-one] | B (a value above 5 °C and less than or equal to 10 °C is marked “B”) | B (a value between 3 and 6 is marked “B”)
11 | CN1CC(C)(C)CCCC(C)(c2cccc(CC(=O)O)c2)c2cnc([nH]2)-c2cc(ccc2F)Oc2c(F)cc3[nH]ccc3c2CCC1=O (single isomer, unassigned) [Compound 65B, 2-[3-(23,29-difluoro-6,10,10,12-tetramethyl-13-oxo-25-oxa-3,12,20,31-tetrazapentacyclo-[24.3.1.12,5.016,24.017,21]hentriaconta-1(30),2,4,16,18,21,23,26,28-nonaen-6-yl)phenyl]acetic acid] | C (a value greater than 10 °C and less than or equal to 25 °C is marked “C”) | A (a TECC value less than 3 is marked “A”)
12 | Cn1nc2nc1-c1cc(ccc1F)Oc1c(F)cc3[nH]ccc3c1COC(=O)NC(C)(C)CCCC2(C)c1cccc(CCC(=O)O)c1 (single isomer, unassigned) [Compound 99A, 3-[3-(22,28-difluoro-3,6,10,10-tetramethyl-12-oxo-13,24-dioxa-3,4,11,19,30-pentazapentacyclo-[23.3.1.12,5.015,23.016,20]-triaconta-1(29),2(30),4,15,17,20,22,25,27-nonaen-6-yl)phenyl]propanoic acid] | C (a value greater than 10 °C and less than or equal to 25 °C is marked “C”) | B (a value between 3 and 6 is marked “B”)
13 | CON(C)C(=O)CCc1cccc(C2(C)CCCC(C)(C)CN(C)C(=O)CCc3c(c(F)cc4[nH]ccc34)Oc3ccc(F)c(c3)-c3ncc2[nH]3)c1 (single isomer, unassigned) [Compound 60B, 3-[3-(23,29-difluoro-6,10,10,12-tetramethyl-13-oxo-25-oxa-3,12,20,31-tetrazapentacyclo-[24.3.1.12,5.016,24.017,21]hentriaconta-1(30),2,4,16,18,21,23,26,28-nonaen-6-yl)phenyl]-N-methoxy-N-methyl-propanamide] | B (a value above 5 °C and less than or equal to 10 °C is marked “B”) | B (a value between 3 and 6 is marked “B”)
14 | COCCONC(=O)CCc1cccc(C2(C)CCCC(C)(C)CN(C)C(=O)CCc3c(c(F)cc4[nH]ccc34)Oc3ccc(F)c(c3)-c3ncc2[nH]3)c1 (single isomer, unassigned) [Compound 57, 3-[3-(23,29-difluoro-6,10,10,12-tetramethyl-13-oxo-25-oxa-3,12,20,31-tetrazapentacyclo[24.3.1.12,5.016,24.017,21]hentriaconta-1(30),2,4,16,18,21,23,26,28-nonaen-6-yl)phenyl]-N-(2-methoxyethoxy)propanamide] | B (a value above 5 °C and less than or equal to 10 °C is marked “B”) | B (a value between 3 and 6 is marked “B”)
15 | CC(Cc1cccc(C2(C)CCCCS(=O)(=O)NC(=O)CCc3c(c(F)cc4[nH]ccc34)Oc3ccc(F)c(c3)-c3nc2nn3C)c1)C(=O)O (stereo not drawn) [Compound 114, 3-[3-(23,29-Difluoro-3,6-dimethyl-11,11,13-trioxo-25-oxa-11λ6-thia-3,4,12,20,31-pentazapentacyclo[24.3.1.12,5.016,24.017,21]hentriaconta-1(30),2(31),4,16,18,21,23,26,28-nonaen-6-yl)phenyl]-2-methyl-propanoic acid] | C (a value greater than 10 °C and less than or equal to 25 °C is marked “C”) | A (a TECC value less than 3 is marked “A”)

— US20250197420A1, “MACROCYCLIC COMPOUNDS, COMPOSITIONS, AND METHODS OF USING THEREOF” (Sionna Therapeutics Inc., priority 2022, published 2025)
